{
  "source": "patent US7875599B2",
  "about": "“C-17-heteroaryl steroidal CYP17 inhibitors/antiandrogens, in vitro biological activities, pharmacokinetics and antitumor activity” (University of Maryland, priority 2005, dated 2011)",
  "key": {"CYP17 [1]": {"molecular_target": "T1, CYP17 (Homo sapiens, UniProt P05093)", "T1 sequence (P05093 1-508)": "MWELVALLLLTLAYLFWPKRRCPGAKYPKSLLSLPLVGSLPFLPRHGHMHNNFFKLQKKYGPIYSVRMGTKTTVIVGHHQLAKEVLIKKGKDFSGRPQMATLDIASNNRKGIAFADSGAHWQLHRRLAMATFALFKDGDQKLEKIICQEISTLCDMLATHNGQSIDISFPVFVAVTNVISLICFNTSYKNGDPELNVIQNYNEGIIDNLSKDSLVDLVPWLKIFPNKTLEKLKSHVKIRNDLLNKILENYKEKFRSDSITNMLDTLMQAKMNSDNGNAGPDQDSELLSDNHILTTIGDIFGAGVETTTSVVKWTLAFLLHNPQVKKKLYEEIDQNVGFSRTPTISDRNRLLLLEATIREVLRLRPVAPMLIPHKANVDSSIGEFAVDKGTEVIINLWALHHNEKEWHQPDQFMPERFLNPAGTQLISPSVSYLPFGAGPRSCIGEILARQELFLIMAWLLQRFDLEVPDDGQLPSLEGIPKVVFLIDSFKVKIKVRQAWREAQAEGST", "assay": "CYP17 inhibition, acetic acid releasing assay with intact P450c17-expressing E. coli"}, "[2]": {"system": "LNCaP mutant AR-mediated transcription", "assay": "Luciferase transactivation assay in LNCaP cells transfected with ARR2-Luc", "settings": "18 h", "method": "Luciferase Transactivation Assay: Transcriptional activation assay is carried out as described previously by Kim et al., above, with minor modifications. […] The pRL-null (Promega) is used as the internal control. […] Luciferase activities are measured in triplicates by using dual luciferase assay system according to the manufacturer's instruction (Promega).\nThe bars represent the mean light units [counts per second (cps)/unit protein, i.e., relative luciferase activity] in triplicate wells from three separate experiments."}, "LAPC4 cells": {"system": "LAPC4 cells", "assay": "LAPC4 cell growth, WST-1 viability assay", "method": "(§1) To determine the effect of novel compounds on cell proliferation, cells are transferred into steroid-free medium three days prior to the start of the experiments. Steroid-free medium consisted of phenol red free RPMI supplemented with 5% dextran-coated, charcoal treated serum, and 1% penicillin/streptomycin solution. Growth studies are then performed by plating cells (3×10^4) in 24-well multi-well dishes (Corning, Inc. Corning, N.Y.). After a 24 hours attachment period, the medium is aspirated and replaced with steroid-free medium containing vehicle or the indicated concentration of DHT (1 nM) and compounds (0.1 μM-10 μM). Control wells are treated with vehicle (ethanol). This medium is changed every three days and the number of viable cells is compared by WST-1 [4-[3-(4-iodophenyl)-2-(4-nitrophenyl)-2H-5-tetrazolio]-1,3-benzene disulfonate] assay on the seventh day. Following incubation of cells for the above-mentioned time, 10% WST-1 solution is added to each well and incubated at 37° C. for three hours. Following incubation, plates are slightly shaken and immediately read at 450 nm with a scanning multi-well spectrophotometer. All results represent the average of a minimum of three wells. Additional control consists of medium alone with no cells.\n(§2) Cells were grown in steroid-free medium before plating."}, "LNCaP cells": {"system": "LNCaP cells", "assay": "LNCaP cell growth, WST-1 viability assay", "method": "as §1, §2"}, "[3]": {"molecular_target": "T2, human 5α-reductase type 2 (Homo sapiens, UniProt P31213)", "T2 sequence (P31213 1-254)": "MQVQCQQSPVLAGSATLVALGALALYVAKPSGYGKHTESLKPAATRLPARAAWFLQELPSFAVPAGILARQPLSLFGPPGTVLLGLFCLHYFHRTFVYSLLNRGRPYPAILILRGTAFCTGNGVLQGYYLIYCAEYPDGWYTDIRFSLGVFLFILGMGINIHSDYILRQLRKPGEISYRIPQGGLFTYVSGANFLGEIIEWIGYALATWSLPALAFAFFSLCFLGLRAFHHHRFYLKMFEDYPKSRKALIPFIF", "assay": "Human 5α-reductase type 2 assay (BPH tissue homogenate)", "settings": "for inhibition at 10 µM: read-out: 5α-Reductase type 2 % inhibition at 10 μM"}, "[4]": {"molecular_target": "T3, human 5α-reductase type 1 (Homo sapiens, UniProt P18405)", "T3 sequence (P18405 1-259)": "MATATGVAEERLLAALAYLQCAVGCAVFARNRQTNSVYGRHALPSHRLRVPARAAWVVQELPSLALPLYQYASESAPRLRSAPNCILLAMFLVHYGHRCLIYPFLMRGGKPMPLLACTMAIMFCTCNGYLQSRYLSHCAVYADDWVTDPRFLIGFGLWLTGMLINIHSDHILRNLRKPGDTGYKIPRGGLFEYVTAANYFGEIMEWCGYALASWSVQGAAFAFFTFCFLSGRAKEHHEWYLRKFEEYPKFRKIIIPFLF", "assay": "Human 5α-reductase type 1 assay (DU-145 cell line)"}, "CYP17 [5]": {"molecular_target": "T1, CYP17", "assay": "UV-vis difference spectroscopy, binding to heme iron of CYP17", "design": "peak position of Soret maximum of the enzyme complex: unit not given here"}, "[6]": {"system": "LAPC4 human prostate tumor xenograft", "assay": "LAPC4 xenograft, second experiment (treatment from day after inoculation)", "format": "in vivo, mouse", "description": "The second in vivo experiment tests the ability of 5 to inhibit the growth of LAPC4 prostate cancer cells growing in SCID mice, and 16 (Chart 1), a previously identified potent CYP17 inhibitor/antiandrogen (Gregoriyev et al. and Njar et al., J. Med. Chem., 1998, 41, 902-912, above) and castration are used as reference treatments. In this experiment, treatment begins on the day that mice were inoculated subcutaneously with hormone-dependent LAPC4 cells and are castrated or injected sc twice daily with 5 or 16.\nIn Vivo Antitumor Studies (LAPC-4 Prostate Cancer Xenografts): All animal studies are performed according to the guidelines and approval of the Animal Care Committee of the University of Maryland School of Medicine, Baltimore. Male severe combined immunodeficient (SCID) mice 4-6 weeks of age purchased from the National Cancer Institute-Frederick Cancer Research and Development Center (Fredrick, Md.) are housed in a pathogen-free environment under controlled conditions of light and humidity and allowed free access to food and water. Tumors are developed from LAPC4 cells inoculated subcutaneously (s.c.) in the mice essentially as previously described (21). LAPC4 cells are grown in IMEM with 15% FBS plus 1% PS and 10 nm DHT until 80% confluent. Cells are scraped into DPBS, collected by centrifugation, and resuspended in Matrigel (10 mg/ml) at 3×10^7 cells/ml. Mice are injected s.c. with 100 μl of the cell suspension at one site on each flank. Tumors are measured weekly with calipers, and tumor volumes are calculated by the formula: […]).\nIn the second experiment, mice are inoculated with LAPC4 cells and are divided into four groups of 5 mice each. The control and castrated group receiv vehicle, while the other two groups receiv either VN/85-1 (0.15 mmol/kg twice-daily, 9 a.m. and 5 p.m.) or 5 (0.15 mmol/kg twice-daily, 9 a.m. and 5 p.m.). These treatments are initiated one day after LAPC4 cell inoculation; continued for 14 weeks for control group, 19 weeks (for VN/85-1 and castration groups) and for 21 weeks for 5 treated group and tumors are measured and processed as described above.\nFIG. 7: The effects of 5, 16, and orchidectomy on the formation and growth of LAPC4 prostate tumors in male SCID mice. 3×10^7 LAPC-4 cells were injected s.c. into the dorsal flank of SCID mice. One group of mice was castrated. The other groups of mice received either vehicle or 5 (0.15 mmol/kg twice-daily) or 16 (0.15 mmol/kg twice-daily). Daily treatment with 5 or 16 was initiated 1 day after cell inoculation. Tumors volumes were measured weekly, and the percentage of change in tumor volume was determined after 16 weeks of treatment * Indicates significant difference of 5 versus control, castration and 16 at week 14 (P 0.00065, 0.05 and 0.0097, respectively). ** Indicates significant difference of 5 versus castration and 16 at week 16 (P=0.047 and 0.0047, respectively). ↓-↓↓: Period of reduced administered dose of 5."}, "[7]": {"settings": "read-out: CYP17 IC50, intact P450c17-expressing E. coli, substrate [21-3H]-17α-hydroxypregnenolone"}},
  "note": "pIC50: −log10 of the molar value. Read-outs that look alike come from different tables or passages of the source.",
  "data": [
    {"smiles": "C[C@]12CC[C@H](O)CC1=CC[C@@H]1[C@@H]2CC[C@]2(C)C(c3cccnc3)=CC[C@@H]12", "note": "[Abiraterone, reference compound]", "values": [
      {"measurement": "pIC50", "setting": "CYP17 [1]", "result": 6.10}
    ]},
    {"smiles": "CC(O)(CS(=O)(=O)c1ccc(F)cc1)C(=O)Nc1ccc(C#N)c(C(F)(F)F)c1", "note": "(stereo not shown) [Casodex]", "values": [
      {"measurement": "effect on luciferase activity, compound alone", "setting": "[2]; 0.1 and 10.0 μM, without DHT", "result": "no effect"},
      {"measurement": "effect on luciferase expression induced by 1.0 nM DHT", "setting": "[2]; with 1.0 nM DHT", "result": "decreased in a concentration-dependent manner"},
      {"measurement": "pIC50", "setting": "LAPC4 cells; Homo sapiens, LAPC4, 168 h, read-out: IC50, inhibition of LAPC4 cell proliferation, 10 nM DHT, 7 days, WST-1", "result": 5.00},
      {"measurement": "pIC50", "setting": "LNCaP cells; Homo sapiens, LNCaP, 168 h, read-out: IC50, inhibition of DHT-induced LNCaP cell proliferation, 1 nM DHT, 7 days, WST-1", "result": 5.07}
    ]},
    {"smiles": "C[C@]12CC[C@H](O)CC1=CCC1C2CC[C@]2(C)C(n3nnc4ccccc43)=CCC12", "note": "(stereo partly drawn) [Compound 9, 3β-Hydroxy-17-(benzo-1H-1,2,3-triazol-1-yl)androsta-5,16-diene]", "values": [
      {"measurement": "melting point", "result": "241 to 244", "unit": "°C"},
      {"measurement": "pIC50", "setting": "CYP17 [1]; [7]", "result": 5.90},
      {"measurement": "inhibition at 10 µM", "setting": "[3]", "result": 17, "unit": "%"},
      {"measurement": "5α-Reductase type 1 % inhibition at 10 μM", "setting": "[4]; 10 μM, DU-145 cells, substrate 5 nM [1β-3H]androstenedione", "result": "ni^f"},
      {"measurement": "peak position of Soret maximum of the enzyme complex", "setting": "CYP17 [5]", "result": 426},
      {"measurement": "type of difference spectrum induced", "setting": "CYP17 [5]", "result": "type II difference spectrum"}
    ]},
    {"smiles": "C[C@]12CCC(=O)C=C1CCC1C2CC[C@]2(C)C(n3nnc4ccccc43)=CCC12", "note": "(stereo partly shown) [Compound 10, 17-(benzo-1H-1,2,3-triazol-1-yl)androsta-4,16-diene-3-one]", "values": [
      {"measurement": "melting point", "result": "280 to 283", "unit": "°C"},
      {"measurement": "pIC50", "setting": "CYP17 [1]; [7]", "result": 5.24},
      {"measurement": "inhibition at 10 µM", "setting": "[3]", "result": 56, "unit": "%"},
      {"measurement": "inhibition at 10 µM", "setting": "[4]; read-out: 5α-Reductase type 1 % inhibition at 10 μM", "result": 21, "unit": "%"}
    ]},
    {"smiles": "C[C@]12CC[C@H](O)CC1=CCC1C2CC[C@]2(C)C(c3cnccn3)=CCC12", "note": "(stereo partly drawn) [Compound 14, 3β-Hydroxy-17-(2-pyrazyl)-androsta-5,16-diene]", "values": [
      {"measurement": "pIC50", "setting": "CYP17 [1]; [7]", "result": 5.42}
    ]},
    {"smiles": "C[C@]12CC[C@H](O)CC1=CC[C@@H]1[C@@H]2CC[C@]2(C)C(c3cncnc3)=CC[C@@H]12", "note": "[Compound 15, 3β-Hydroxy-17-(5-pyrimidyl)-androsta-5,16-diene]", "values": [
      {"measurement": "melting point", "result": "231 to 233", "unit": "°C"},
      {"measurement": "pIC50", "setting": "CYP17 [1]", "result": 6.30}
    ]},
    {"smiles": "C[C@]12CCC(=O)C[C@@H]1CC[C@@H]1[C@@H]2CC[C@]2(C)[C@@H](O)CC[C@@H]12", "note": "[DHT, dihydrotestosterone]", "values": [
      {"measurement": "increase of luciferase expression", "setting": "[2]; 1.0 nM", "result": "approximately 99.6 fold"},
      {"measurement": "induction of LAPC4 cell proliferation", "setting": "LAPC4 cells; 10 nM", "result": "does not significantly induce cell proliferation"},
      {"measurement": "stimulation of LNCaP cell proliferation compared to vehicle-treated cells", "setting": "LNCaP cells; 1 nM", "result": "about 2 fold"}
    ]},
    {"smiles": "CC(C)(C)NC(=O)[C@H]1CC[C@H]2[C@@H]3CC[C@H]4NC(=O)C=C[C@]4(C)[C@H]3CC[C@]12C", "note": "[Finasteride, reference compound]", "values": [
      {"measurement": "pIC50", "setting": "[3]; read-out: 5α-Reductase type 2 [IC50], BPH tissue enzyme, values in square brackets", "result": 8.70},
      {"measurement": "pIC50", "setting": "[4]; read-out: 5α-Reductase type 1 [IC50], DU-145 cells, values in square brackets", "result": 7.22}
    ]},
    {"smiles": "C[C@]12CC[C@H](O)CC1=CC[C@@H]1[C@@H]2CC[C@]2(C)C(n3ccnc3)=CC[C@@H]12", "note": "[VN/85-1, 3β-hydroxy-17-(1H-imidazole-1-yl)androsta-5,16-diene]", "values": [
      {"measurement": "times more potent than 5 in CYP17 inhibition", "setting": "CYP17 [1]", "result": 6, "unit": "times"},
      {"measurement": "pIC50", "setting": "CYP17 [1]; [7]", "result": 7.30},
      {"measurement": "week of therapy at which palpable and measurable tumors develop", "setting": "[6]; 0.15 mmol/kg twice-daily", "result": 11, "unit": "week"},
      {"measurement": "increase of tumor volume", "setting": "[6]; 0.15 mmol/kg twice-daily s.c., week 14", "result": 3.7, "unit": "fold"},
      {"measurement": "reduction of tumor volume versus control mice", "setting": "[6]; 0.15 mmol/kg twice-daily s.c., week 14 (b4 prints 50 mg/kg/twice daily)", "result": 53.8, "unit": "%"}
    ]}
  ]
}
